Reference: PubChem BioAssay AID1259411 (Chemical Carcinogenesis Research Information System (CCRIS), 2018)
Activity calls are given as the source filed them. The rule behind the calls is not given here.

System: rodent carcinogenicity bioassays, tumor incidence
Assay: CCRIS carcinogenicity studies
Details: Dose: 0, Dose: 0
In short: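 NCI-built, expert-reviewed records of carcinogenicity and related test outcomes (mutagenicity, tumor promotion/inhibition) compiled from published and report sources, historical span 1985-2011, not updated.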

## CC(Cl)Cl
Species: MOUSE, Strain/Sex: B6C3F1/FEMALE, Route: GAVAGE, 1665, 3331 MG/KG 5/WK FOR 78 WK (STUDY DURATION: 91 WK), 1665, 3331 MG/KG 5/WK FOR 78 WK (STUDY DURATION: 91 WK), Tumor Site: Type of Lesion: UTERUS: ENDOMETRIAL STROMAL POLYP
  carcinogen call: equivocal
Species: MOUSE, Strain/Sex: B6C3F1/MALE, Route: GAVAGE, 1,442, 2,885 MG/KG 5/WK FOR 78 WK (STUDY DURATION: 91 WK), 1,442, 2,885 MG/KG 5/WK FOR 78 WK (STUDY DURATION: 91 WK)
  carcinogen call: inactive; negative
Species: RAT, Strain/Sex: OSBORNE-MENDEL/FEMALE, Route: GAVAGE, 475, 950 MG/KG 5/WK FOR 78 WK (STUDY DURATION: 111 WK), 475, 950 MG/KG 5/WK FOR 78 WK (STUDY DURATION: 111 WK), Tumor Site: Type of Lesion: MAMMARY GLAND: ADENOCARCINOMA, LUNG: HEMANGIOSARCOMA, SPLEEN: HEMANGIOSARCOMA, Tumor Site: Type of Lesion: MAMMARY GLAND: ADENOCARCINOMA, LUNG: HEMANGIOSARCOMA, SPLEEN: HEMANGIOSARCOMA
  carcinogen call: equivocal
Species: RAT, Strain/Sex: OSBORNE-MENDEL/MALE, Route: GAVAGE, 382, 764 MG/KG 5/WK FOR 78 WK (STUDY DURATION: 111 WK), 382, 764 MG/KG 5/WK FOR 78 WK (STUDY DURATION: 111 WK)
  carcinogen call: inactive; negative

## Cc1ccc(O)c(O)c1
Species: RAT, Strain/Sex: F344/FEMALE, Route: ORAL, 2% IN DIET FOR 104 WK (STUDY DURATION: 104 WK), Tumor Site: Type of Lesion: FORESTOMACH: PAPILLOMA, SQUAMOUS CELL CARCINOMA, GLANDULAR STOMACH: ADENOMA, ADENOCARCINOMA
  carcinogen call: active; positive
Species: RAT, Strain/Sex: F344/MALE, Route: ORAL, 2% IN DIET FOR 104 WK (STUDY DURATION: 104 WK), Tumor Site: Type of Lesion: FORESTOMACH: PAPILLOMA, SQUAMOUS CELL CARCINOMA, GLANDULAR STOMACH: ADENOMA, ADENOCARCINOMA
  carcinogen call: active; positive

## OCC(CO)(CBr)CBr
Species: GUPPIE, Strain/Sex: MALE, Route: AQUARIUM WATER, 24, 60, 150 MG/L FOR 9 MO THEN IN CLEAN WATER FOR 7 MO (STUDY DURATION: 16 MO), 24, 60, 150 MG/L FOR 9 MO THEN IN CLEAN WATER FOR 7 MO (STUDY DURATION: 16 MO), Tumor Site: Type of Lesion: LIVER: HEPATOCELLULAR ADENOMA OR CARCINOMA
  carcinogen call: active; positive
Species: GUPPIE, Strain/Sex: MALE, Route: AQUARIUM WATER, 24, 60, 150 MG/L FOR 16 MO (STUDY DURATION: 16 MO), 24, 60, 150 MG/L FOR 16 MO (STUDY DURATION: 16 MO), Tumor Site: Type of Lesion: LIVER: HEPATOCELLULAR ADENOMA OR CARCINOMA
  carcinogen call: active; positive; due to mortality, exposure in 150 mg/l group terminated on day 443
Species: MEDAKA, Strain/Sex: FEMALE, Route: AQUARIUM WATER, 24, 60, 150 MG/L FOR 14 MO (STUDY DURATION: 14 MO), 24, 60, 150 MG/L FOR 14 MO (STUDY DURATION: 14 MO)
  carcinogen call: inactive; negative
Species: MEDAKA, Strain/Sex: MALE, Route: AQUARIUM WATER, 24, 60, 150 MG/L FOR 9 MO THEN IN CLEAN WATER FOR 5 MO (STUDY DURATION: 14 MO), 24, 60, 150 MG/L FOR 9 MO THEN IN CLEAN WATER FOR 5 MO (STUDY DURATION: 14 MO), Tumor Site: Type of Lesion: LIVER: HEPATOCELLULAR ADENOMA OR CARCINOMA
  carcinogen call: active; positive
Species: MEDAKA, Strain/Sex: MALE, Route: AQUARIUM WATER, 24, 60, 150 MG/L FOR 14 MO (STUDY DURATION: 14 MO), 24, 60, 150 MG/L FOR 14 MO (STUDY DURATION: 14 MO), Tumor Site: Type of Lesion: LIVER: HEPATOCELLULAR ADENOMA OR CARCINOMA
  carcinogen call: active; positive
Species: MOUSE, Strain/Sex: B6C3F1/FEMALE, Route: ORAL, 312, 625, 1250 PPM IN DIET FOR 104-105 WK (STUDY DURATION: 106 WK), 312, 625, 1250 PPM IN DIET FOR 104-105 WK (STUDY DURATION: 106 WK), Tumor Site: Type of Lesion: HARDERIAN GLAND: ADENOMA, CARCINOMA, LUNG: ALVEOLAR/BRONCHIOLAR ADENOMA OR CARCINOMA, SKIN(SUBCUTANEOUS TISSUE): SARCOMA, Tumor Site: Type of Lesion: HARDERIAN GLAND: ADENOMA, CARCINOMA, LUNG: ALVEOLAR/BRONCHIOLAR ADENOMA OR CARCINOMA, SKIN(SUBCUTANEOUS TISSUE): SARCOMA
  carcinogen call: active; positive
Species: MOUSE, Strain/Sex: B63CF1/MALE, Route: ORAL, 312, 625, 1250 PPM IN DIET FOR 104-105 WK (STUDY DURATION: 106 WK), 312, 625, 1250 PPM IN DIET FOR 104-105 WK (STUDY DURATION: 106 WK), Tumor Site: Type of Lesion: HARDERIAN GLAND: ADENOMA, ADENOMA OR CARCINOMA, LUNG: ALVEOLAR/BRONCHIOLAR ADENOMA, ALVEOLAR/BRONCHIOLAR CARCINOMA
  carcinogen call: active; positive
Species: RAT, Strain/Sex: F344/FEMALE, Route: ORAL, 2500, 5000, 10000 PPM IN DIET FOR 104-105 WK (STUDY DURATION: 105 WK), 2500, 5000, 10000 PPM IN DIET FOR 104-105 WK (STUDY DURATION: 105 WK), Tumor Site: Type of Lesion: ESOPHAGUS: SQUAMOUS CELL PAPILLOMA, MAMMARY GLAND: FIBROADENOMA, ORAL CAVITY: SQUAMOUS CELL PAPILLOMA OR SQUAMOUS CELL C, Tumor Site: Type of Lesion: ESOPHAGUS: SQUAMOUS CELL PAPILLOMA, MAMMARY GLAND: FIBROADENOMA, ORAL CAVITY: SQUAMOUS CELL PAPILLOMA OR SQUAMOUS CELL C
  carcinogen call: active; positive
Species: RAT, Strain/Sex: F344/MALE, Route: ORAL, 2500, 5000, 10000 PPM IN DIET FOR 104-105 WK (STUDY DURATION: 105 WK), 2500, 5000, 10000 PPM IN DIET FOR 104-105 WK (STUDY DURATION: 105 WK), Tumor Site: Type of Lesion: ESOPHAGUS: SQUAMOUS CELL PAPILLOMA, LARGE INTESTINE: ADENOMATOUS POLYP, MAMMARY GLAND: FIBROADENOMA, FIBROADENOMA OR ADE, Tumor Site: Type of Lesion: ESOPHAGUS: SQUAMOUS CELL PAPILLOMA, LARGE INTESTINE: ADENOMATOUS POLYP, MAMMARY GLAND: FIBROADENOMA, FIBROADENOMA OR ADE
  carcinogen call: active; positive
Species: RAT, Strain/Sex: F344/MALE, Route: ORAL, 20000 PPM IN DIET FOR 3 MO FOLLOWED BY NORMAL DIET FOR 21 MO (STUDY DURATION: 2 YR), Tumor Site: Type of Lesion: LARGE INTESTINE: ADENOMATOUS POLYP, LUNG: ALVEOLAR/BRONCHIOLAR ADENOMA OR CARCINOMA, MAMMARY GLAND: FIBROADENOMA, ORAL C, Tumor Site: Type of Lesion: LARGE INTESTINE: ADENOMATOUS POLYP, LUNG: ALVEOLAR/BRONCHIOLAR ADENOMA OR CARCINOMA, MAMMARY GLAND: FIBROADENOMA, ORAL C
  carcinogen call: active; positive

## CCN(CC)c1ccc2c(-c3ccccc3C(=O)O)c3ccc(=[N+](CC)CC)cc-3oc2c1
Species: MOUSE, Strain/Sex: ICR/FEMALE, Route: DERMAL, 1 MG IN 0.1 ML DISTILLED WATER 2/WK FOR A MEAN TOTAL DOSE OF 121.4 MG (STUDY DURATION: 18 MO)
  carcinogen call: inactive; negative
Species: MOUSE, Strain/Sex: ICR/MALE, Route: DERMAL, 1 MG IN 0.1 ML DISTILLED WATER 2/WK FOR A MEAN TOTAL DOSE OF 121.4 MG (STUDY DURATION: 18 MO)
  carcinogen call: inactive; negative

## COC(=O)N(C(=O)N1CO[C@@]2(C(=O)OC)Cc3cc(Cl)ccc3C2=N1)c1ccc(OC(F)(F)F)cc1
Species: Mouse, Strain/Sex: Crl:CD-1(ICR)BR/Female (70/Group), Route: Oral, 20, 100, 125/150/200 ppm for 18 mo, study duration 18 mo, 20, 100, 125/150/200 ppm for 18 mo, study duration 18 mo
  carcinogen call: inactive; negative
Species: Mouse, Strain/Sex: Crl:CD-1(ICR)BR/Male (70/Group), Route: Oral, 20, 100, 125/150/200 ppm for 18 mo, study duration 18 mo, 20, 100, 125/150/200 ppm for 18 mo, study duration 18 mo
  carcinogen call: inactive; negative

## O[C@H]1C=Cc2c(ccc3ncccc23)[C@@H]1O
Species: MOUSE, Strain/Sex: CD-1/FEMALE, Route: INTRAPERITONEAL, 5, 10 AND 20 µL OF A 0.05 MOLAR SOLUTION ON DAYS 1, 8 AND 15 OF LIFE RESPECTIVELY (TOTAL DOSE: 1.75 UMOL) (STUDY DURA, 5, 10 AND 20 µL OF A 0.05 MOLAR SOLUTION ON DAYS 1, 8 AND 15 OF LIFE RESPECTIVELY (TOTAL DOSE: 1.75 UMOL) (STUDY DURA
  carcinogen call: inactive; negative
Species: MOUSE, Strain/Sex: CD-1/MALE, Route: INTRAPERITONEAL, 5, 10 AND 20 µL OF A 0.05 MOLAR SOLUTION ON DAYS 1, 8 AND 15 OF LIFE RESPECTIVELY (TOTAL DOSE: 1.75 UMOL) (STUDY DURA, 5, 10 AND 20 µL OF A 0.05 MOLAR SOLUTION ON DAYS 1, 8 AND 15 OF LIFE RESPECTIVELY (TOTAL DOSE: 1.75 UMOL) (STUDY DURA
  carcinogen call: inactive; negative
